{"source": "paper PMC3116808", "about": "(Journal of natural products, 2011)", "type_in_all_cases": "cell-based", "key": {"NCI-H460": {"system": "NCI-H460", "assay": "Human cancer cell line minipanel: lung NCI-H460"}, "BXPC-3": {"system": "BXPC-3", "assay": "Human cancer cell line minipanel: pancreas BXPC-3"}, "DU-145": {"system": "DU-145", "assay": "Human cancer cell line minipanel: prostate DU-145"}, "MCF-7": {"system": "MCF-7", "assay": "Human cancer cell line minipanel: breast MCF-7", "conditions": "MCF7"}, "SF-268": {"system": "SF-268", "assay": "Human cancer cell line minipanel: CNS SF-268"}, "KM20L2": {"system": "KM20L2", "assay": "Human cancer cell line minipanel: colon KM20L2", "conditions": "KM-20L2"}, "[1]": {"system": "P388 lymphocytic leukemia cell line", "assay": "Murine P388 lymphocytic leukemia cell line growth inhibition"}, "[2]": {"system": "panel of murine and human cancer cell lines", "assay": "Cancer cell growth inhibition, summary over the panel"}}, "data": [{"smiles": "CC[C@H](C)[C@@H]([C@@H](CC(=O)N1CCC[C@H]1[C@H](OC)[C@@H](C)C(=O)Nc1ccc2ccccc2n1)OC)N(C)C(=O)[C@@H](NC(=O)[C@H](C(C)C)N(C)C)C(C)C", "note": "[compound 4, Dov-Val-Dil-Dap-2-aminoquinoline]", "values": [{"measurement": "GI50", "setting": "NCI-H460", "value": 16, "unit": "ng/mL"}, {"measurement": "GI50", "setting": "BXPC-3", "value": 29, "unit": "ng/mL"}, {"measurement": "GI50", "setting": "DU-145", "value": 23, "unit": "ng/mL"}, {"measurement": "GI50", "setting": "MCF-7", "value": 4.6, "unit": "ng/mL"}, {"measurement": "GI50", "setting": "SF-268", "value": 29, "unit": "ng/mL"}, {"measurement": "GI50", "setting": "KM20L2", "value": 7.7, "unit": "ng/mL"}, {"measurement": "ED50", "setting": "[1]", "value": 31, "unit": "ng/mL"}, {"measurement": "ED50 (nanomolar value in parentheses)", "setting": "[1]", "value": 42.8, "unit": "nM"}]}, {"smiles": "CC[C@H](C)[C@@H]([C@@H](CC(=O)N1CCC[C@H]1[C@H](OC)[C@@H](C)C(=O)Nc1ccc2ncccc2c1)OC)N(C)C(=O)[C@@H](NC(=O)[C@H](C(C)C)N(C)C)C(C)C", "note": "[compound 5, Dov-Val-Dil-Dap-6-aminoquinoline]", "values": [{"measurement": "GI50", "setting": "NCI-H460", "value": 0.36, "unit": "ng/mL"}, {"measurement": "GI50", "setting": "BXPC-3", "value": 0.31, "unit": "ng/mL"}, {"measurement": "GI50", "setting": "DU-145", "value": 0.3, "unit": "ng/mL"}, {"measurement": "GI50", "setting": "MCF-7", "value": 0.14, "unit": "ng/mL"}, {"measurement": "GI50", "setting": "SF-268", "value": 0.16, "unit": "ng/mL"}, {"measurement": "GI50", "setting": "KM20L2", "value": 0.25, "unit": "ng/mL"}, {"measurement": "ED50", "setting": "[1]", "value": 2.6, "unit": "ng/mL"}, {"measurement": "ED50 (nanomolar value in parentheses)", "setting": "[1]", "value": 3.59, "unit": "nM"}, {"measurement": "GI50", "setting": "[2]", "value": 0.1, "unit": "ng/mL"}]}, {"smiles": "CC[C@H](C)[C@@H]([C@@H](CC(=O)N1CCC[C@H]1[C@H](OC)[C@@H](C)C(=O)NCCc1ccc(O)cc1)OC)N(C)C(=O)[C@@H](NC(=O)[C@H](C(C)C)N(C)C)C(C)C", "note": "[compound 9, Dov-Val-Dil-Dap-4-hydroxyphenethylamide]", "values": [{"measurement": "ED50", "setting": "[1]", "value": 3.6, "unit": "ng/mL"}, {"measurement": "ED50 (nanomolar value in parentheses)", "setting": "[1]", "value": 5.0, "unit": "nM"}]}, {"smiles": "CC[C@H](C)[C@@H]([C@@H](CC(=O)N1CCC[C@H]1[C@H](OC)[C@@H](C)C(=O)NCCc1ccc(OP(=O)([O-])[O-])cc1)OC)N(C)C(=O)[C@@H](NC(=O)[C@H](C(C)C)N(C)C)C(C)C.[K+].[K+]", "note": "[3c, Potassium Auristatin TP]", "values": [{"measurement": "ED50", "setting": "[1]", "value": 7.6, "unit": "ng/mL"}, {"measurement": "ED50 (nanomolar value in parentheses)", "setting": "[1]", "value": 8.7, "unit": "nM"}]}, {"smiles": "CC[C@H](C)[C@@H]([C@@H](CC(=O)N1CCC[C@H]1[C@H](OC)[C@@H](C)C(=O)NCCc1ccc(OP(=O)([O-])[O-])cc1)OC)N(C)C(=O)[C@@H](NC(=O)[C@H](C(C)C)N(C)C)C(C)C.[Na+].[Na+]", "note": "[3b, Sodium Auristatin TP]", "values": [{"measurement": "GI50", "setting": "NCI-H460", "value": 0.88, "unit": "ng/mL"}, {"measurement": "GI50", "setting": "BXPC-3", "value": 46, "unit": "ng/mL"}, {"measurement": "GI50", "setting": "DU-145", "value": 0.54, "unit": "ng/mL"}, {"measurement": "GI50", "setting": "MCF-7", "value": 0.68, "unit": "ng/mL"}, {"measurement": "GI50", "setting": "SF-268", "value": 1.25, "unit": "ng/mL"}, {"measurement": "GI50", "setting": "KM20L2", "value": 0.61, "unit": "ng/mL"}, {"measurement": "ED50", "setting": "[1]", "value": "< 1", "unit": "ng/mL"}, {"measurement": "ED50 (nanomolar value in parentheses)", "setting": "[1]", "value": "< 1.2", "unit": "nM"}]}]}
